Reference: ChEMBL document CHEMBL4715915, “Identification of madangamine A as a novel lysosomotropic agent to inhibit autophagy” (2021)
Activity calls are given as the source filed them. The calls are words filed in the database; no cut-off is given here.

How the values were obtained:
[1] = system: HeLa; experiment: Inhibition of autophagy in human HeLa cells assessed as increase in lysosomal pH at 10 uM after 24 hrs by LysoTracker Red DND-99 staining based fluorescence microscopic method; format: functional, cell-based
[2] = system: HeLa; experiment: Induction of autophagy in human HeLa cells assessed as decrease in P62 protein level at 1 uM after 24 hrs by Western blot analysis; format: functional, cell-based
[3] = system: HeLa; experiment: Inhibition of autophagy in human HeLa cells assessed as increase in lysosomal pH at 10 nM after 24 hrs by LysoTracker Red DND-99 staining based fluorescence microscopic method; format: functional, cell-based
[4] = system: HeLa; experiment: Inhibition of autophagy in human HeLa cells assessed as increase in P62 protein level at 10 nM after 24 hrs by Western blot analysis; format: functional, cell-based
[5] = system: HeLa; experiment: Induction of autophagosome formation in human HeLa cells assessed as increase in LC3 puncta at 10 nM after 24 hrs by Alexa Fluor 488 staining based fluorescence microscopic analysis; format: functional, cell-based
[6] = system: SK-MEL-28; experiment: Induction of autophagosome formation in SK-MEL-28 cells assessed as increase in LC3 puncta at 10 uM after 24 hrs by Alexa Fluor 488 staining based fluorescence microscopic analysis; format: functional, cell-based; conditions: Homo sapiens
[7] = system: HeLa; experiment: Modulation of autophagy in human HeLa cells assessed as increase in LC3-2 protein level at 10 uM after 24 hrs in presence of Baf A1 by Western blot analysis; format: functional, cell-based
[8] = system: HeLa; experiment: Induction of autophagosome formation in human HeLa cells assessed as increase in LC3 puncta at 10 uM after 6 hrs in presence of rapamycin by Alexa Fluor 488 staining based fluorescence microscopic analysis; format: functional, cell-based
[9] = system: HeLa; experiment: Inhibition of autophagy in human HeLa cells assessed as increase in P62 protein level at 1 to 20 uM after 24 hrs by Western blot analysis; format: functional, cell-based; conditions: dose 1-20 µM
[10] = system: HeLa; experiment: Antiproliferative activity against human HeLa cells assessed as cell viability at 1 uM after 24 hrs by MTT assay relative to control; format: functional; conditions: read-out: Activity
[11] = system: HeLa; experiment: Inhibition of autophagy in human HeLa cells assessed as increase in P62 protein level at 10 uM after 24 hrs in presence of chloroquine by Western blot analysis; format: functional, cell-based
[12] = system: HT-1080; experiment: Induction of autophagosome formation in HT-1080 cells assessed as increase in LC3 puncta at 10 uM after 24 hrs by Alexa Fluor 488 staining based fluorescence microscopic analysis; format: functional, cell-based; conditions: Homo sapiens
[13] = system: HeLa; experiment: Antiproliferative activity against human HeLa cells assessed as cell viability at 10 uM after 24 hrs by MTT assay relative to control; format: functional; conditions: read-out: Activity
[14] = system: HeLa; experiment: Induction of autophagosome formation in human HeLa cells assessed as increase in LC3 puncta at 10 uM after 24 hrs by Alexa Fluor 488 staining based fluorescence microscopic analysis; format: functional, cell-based
[15] = system: HeLa; experiment: Modulation of autophagy in human HeLa cells assessed as increase in LC3-2 protein level at 10 uM after 24 hrs in presence of chloroquine by Western blot analysis; format: functional, cell-based
[16] = system: HeLa; experiment: Inhibition of autophagy in human HeLa cells assessed as increase in P62 protein level at 10 uM after 24 hrs in presence of Baf A1 by Western blot analysis; format: functional, cell-based
[17] = system: HeLa; experiment: Inhibition of autophagy in human HeLa cells assessed as decrease in cathepsin B at 10 nM after 24 hrs by immunoblot analysis; format: functional, cell-based
[18] = system: HeLa; experiment: Antiproliferative activity against human HeLa cells assessed as cell viability at 20 uM after 24 hrs by MTT assay relative to control; format: functional; conditions: read-out: Activity
[19] = system: HeLa; experiment: Induction of autophagosome formation in human HeLa cells assessed as increase in LC3 puncta at 10 uM after 24 hrs in presence of Baf A1 by Alexa Fluor 488 staining based fluorescence microscopic analysis; format: functional, cell-based
[20] = system: HeLa; experiment: Modulation of autophagy in human HeLa cells assessed as increase in LC3-2 protein level at 1 to 20 uM after 24 hrs by Western blot analysis; format: functional, cell-based; conditions: dose 1-20 µM

CCN(CC)CCCC(C)Nc1ccnc2cc(Cl)ccc12 (stereo unspecified) was tested, and the inhibition [1] was “Active”.
With CO[C@H]1C[C@@H]2CC[C@@H](C)[C@@](O)(O2)C(=O)C(=O)N2CCCC[C@H]2C(=O)O[C@H]([C@H](C)C[C@@H]2CC[C@@H](O)[C@H](OC)C2)CC(=O)[C@H](C)/C=C(\C)[C@@H](O)[C@@H](OC)C(=O)[C@H](C)C[C@H](C)/C=C/C=C/C=C/1C the Activity [2] was “Active”.
With CO/C1=C\C(C)=C\[C@@H](C)[C@@H](O)[C@@H](C)C/C(C)=C/C=C/[C@H](OC)[C@@H]([C@@H](C)[C@@H](O)[C@H](C)[C@@]2(O)C[C@@H](O)[C@H](C)[C@@H](C(C)C)O2)OC1=O the inhibition [3] was “inactive”, the inhibition [4] was “Active” and the Activity [5] was “Active”.
In the case of C1=C\C/C=C\CC[C@@]23CN(CC/C=C\C/1)C[C@H]1C/C4=C/C/C=C\CCCCN(C2)[C@@H]4C[C@H]13, the Activity [6] is reported as “Active”, the inhibition [1] is reported as “Active” and the inhibition [7] is reported as “Active”. For the same compound, the Activity [8] was “inactive”, the inhibition [9] was “Active” and the viability at 1 µM [10] was 95.2%. The inhibition [11] was “Active”, the Activity [12] was “Active” and the viability at 10 µM [13] was 2.9%. The Activity [14] was “Active”, the inhibition [15] was “Active” and the inhibition [16] was “Active”. For the same compound, the inhibition [17] was “Active”, the viability at 20 µM [18] was 1.4% and the Activity [19] was “Active”. For the same compound, the Activity [20] was “Active”.
